{
  "source": "patent US20240277666A1",
  "about": "“Combination Treatments for Cancer Patients and Methods for Identifying Same” (Scandion Oncology A/S, priority 2021, published 2024)",
  "key": {"[1]": {"molecular_target": "T1, UGT1A1 (Homo sapiens, UniProt P22309)", "T1 sequence (P22309 26-533)": "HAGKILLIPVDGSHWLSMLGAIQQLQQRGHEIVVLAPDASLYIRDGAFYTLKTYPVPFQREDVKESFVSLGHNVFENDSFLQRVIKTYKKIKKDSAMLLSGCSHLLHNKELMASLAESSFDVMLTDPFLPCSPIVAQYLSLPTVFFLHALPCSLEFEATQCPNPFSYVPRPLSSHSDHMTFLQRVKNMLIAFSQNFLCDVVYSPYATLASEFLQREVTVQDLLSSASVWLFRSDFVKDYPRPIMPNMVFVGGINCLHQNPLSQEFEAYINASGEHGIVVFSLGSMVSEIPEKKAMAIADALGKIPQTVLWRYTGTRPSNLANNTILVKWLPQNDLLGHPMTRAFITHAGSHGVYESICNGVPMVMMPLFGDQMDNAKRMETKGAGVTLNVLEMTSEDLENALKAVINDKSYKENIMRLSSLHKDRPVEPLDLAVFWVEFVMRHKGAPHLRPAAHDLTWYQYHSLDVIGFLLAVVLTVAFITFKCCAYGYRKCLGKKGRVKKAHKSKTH", "assay": "in vitro UGT1A1 inhibition assay", "assay_type": "biochemical", "details": "read-out: IC50 towards UGT1A1", "source_text": "The term “UGT1A1 inhibitor” as used herein refers to a molecule which is capable of binding to the enzyme uridine diphosphate (UDP)-glycuronosyl transferase (UGT1A1) and decrease the enzymatic activity of UGT1A1. The UGT1A1 enzyme, primarily found in the liver, is responsible for the gluronidation of bilirubin, converting it from the toxic form of bilirubin (unconjugated bilirubin) to its nontoxic, water-soluble form (conjugated bilirubin). Whether or not a particular molecule is an UGT1A1 inhibitor can be determined by examining the molecule's IC50 in vitro in common UGT1A1 inhibition assays. […] In one embodiment, the IC50 is 5 μM or less, such as 4 μM or less, such as 3 μM or less, such as 2 μM or less, for example between 0.1 μM and 2.0 μM. […] In some embodiments, the UGT1A1 inhibitor of the present disclosure is a non-competitive UGT1A1 inhibitor. In some embodiments, the UGT1A1 inhibitor is a competitive UGT1A1 inhibitor. In one embodiment, the UGT1A1 inhibitor is also SRPK1 inhibitor and/or an ABCG2 inhibitor."}, "[2]": {"molecular_target": "T1, UGT1A1", "assay": "Clinical study of SCO-101 with FOLFIRI: serum bilirubin / bilirubin index as surrogate of UGT1A1 activity", "assay_type": "in vivo", "set-up": "from tissue; host or cells: patients in vivo (enzyme primarily in the liver)", "details": "for mean bilirubin index score (day 12 / day 7 bilirubin serum concentration): cohort 1 (150 mg SCO-101), cycle 1; for highest bilirubin index score / lowest bilirubin index score: cohort 1, cycle 1", "method": "The term “bilirubin index” as used herein or “bilirubin index score” which are used interchangeably, refer to a patient's rate of bilirubin normalization subsequent to administration of an UGT1A1 inhibitor to the patient. Herein, the bilirubin index is determined subsequent to administration of an UGT1A1 inhibitor to the patient for a number of consecutive days, such as 1, 2, 3, 4, 5, or 6, preferably 6 days. In some embodiments, based on 6 consecutive days of administration with an UGT1A1 inhibitor, the bilirubin index can be determined as the bilirubin serum concentration (unconjugated or total bilirubin) on day 12 divided with the bilirubin serum concentration on day 7 and thus is an indicator of how much the patients' UGT1A1 activity has normalized following cessation of treatment with the UGT1A1 inhibitor, such as SCO-101, and can be determined using bilirubin as a surrogate marker. Based on 6 consecutive days of administration with an UGT1A1 inhibitor, the bilirubin index is determined as the bilirubin serum concentration (unconjugated or total bilirubin) on day 12 divided with the bilirubin serum concentration on day 7 and thus is an indicator of how much the patients' UGT1A1 activity has normalized following cessation of SCO-101 treatment, and can be determined using bilirubin as a surrogate marker. In some embodiments, the bilirubin index is determined by comparison on bilirubin serum concentrations obtained from other days than day 7 and day 12. The bilirubin index is also referred to herein as the CT2/CT1 ratio, wherein CT1 is the plasma concentration of unconjugated bilirubin in the patient at a time point T1, whereas CT2 is the plasma concentration of unconjugated bilirubin in the patient at a time point T2 which is after discontinuing administration of the UGT1A1 inhibitor.\nBilirubin: Blood sampling for analysis of bilirubin (total, unconjugated and conjugated) were withdrawn at Screening (up to 4 weeks prior start of treatment), day 5, day 7 and day 12 in the first treatment cycle.\nUGT1A1 is the primary enzyme responsible for conjugation of bilirubin and metabolism of Irinotecan's active metabolite SN-38."}},
  "data": [
    {"smiles": "O=C(Nc1cc(C(F)(F)F)cc(C(F)(F)F)c1)Nc1ccc(Br)cc1-c1nnn[nH]1", "note": "[SCO-101]", "values": [
      {"measurement": "IC50", "setting": "[1]", "value": "0.7 to 1.9", "unit": "µM"},
      {"measurement": "effect on unconjugated bilirubin serum concentration", "setting": "[2]; cancer patients, SCO-101 daily days 1-6", "value": "specific and dose dependent increase"},
      {"measurement": "reversibility of UGT1A1 inhibition / bilirubin increase after discontinuation of SCO-101", "setting": "[2]; cancer patients, blood bilirubin after last SCO-101 treatment", "value": "completely reversible"},
      {"measurement": "bilirubin index of patients with RAS mutation", "setting": "[2]; cohort 1, cycle 1, day 12 / day 7", "value": "above 0.4"},
      {"measurement": "mean bilirubin index score (day 12 / day 7 bilirubin serum concentration)", "setting": "[2]; six RAS mutated patients", "value": 0.59},
      {"measurement": "highest bilirubin index score", "setting": "[2]; six RAS mutated patients", "value": 0.76},
      {"measurement": "lowest bilirubin index score", "setting": "[2]; six RAS mutated patients", "value": 0.25},
      {"measurement": "mean bilirubin index score (day 12 / day 7 bilirubin serum concentration)", "setting": "[2]; six RAS wild type patients", "value": "approximately 0.15"},
      {"measurement": "highest bilirubin index score", "setting": "[2]; six RAS wild type patients", "value": 0.28},
      {"measurement": "lowest bilirubin index score", "setting": "[2]; six RAS wild type patients", "value": 0.04}
    ]}
  ]
}
